Experiments:
[1] = xn = mol fraction of the nth substance listed; settings: 101 kPa, Liquid
[2] = refractive index (Na D-line) (dimensionless); xn = mol fraction of the nth substance listed; settings: 101 kPa, Liquid

Cc1ccccc1C [1,2-dimethylbenzene] + COc1ccccc1
x2 = 0
Settings | mass density, 288.15 K [kg/m3] | mass density, 293.15 K [kg/m3] | mass density, 298.15 K [kg/m3] | mass density, 303.15 K [kg/m3] | refractive index, 288.15 K | refractive index, 293.15 K | refractive index, 298.15 K | refractive index, 303.15 K
[1] | 883.29 | 879.08 | 875.53 | 870.73 | – | – | – | –
[2] | – | – | – | – | 1.5072 | 1.5047 | 1.5018 | 1.5

Cc1cc(C)cc(C)c1 [1,3,5-trimethylbenzene] + COc1ccccc1
Settings | mass density, 288.15 K [kg/m3] | mass density, 293.15 K [kg/m3] | mass density, 298.15 K [kg/m3] | mass density, 303.15 K [kg/m3] | refractive index, 288.15 K | refractive index, 293.15 K | refractive index, 298.15 K | refractive index, 303.15 K
[1], x2 = 0 | 869.17 | 865.07 | 861.06 | 856.95 | – | – | – | –
[1], x2 = 0.1099 | 880.36 | 876.24 | 872.21 | 868.07 | – | – | – | –
[1], x2 = 0.2441 | 894.89 | 890.7 | 886.62 | 882.42 | – | – | – | –
[1], x2 = 0.3933 | 912.23 | 907.95 | 903.79 | 899.5 | – | – | – | –
[1], x2 = 0.509 | 926.57 | 922.2 | 917.98 | 913.64 | – | – | – | –
[1], x2 = 0.672 | 948.28 | 943.8 | 939.52 | 935.05 | – | – | – | –
[1], x2 = 0.749 | 959.22 | 954.69 | 950.34 | 945.87 | – | – | – | –
[1], x2 = 0.8397 | 972.73 | 968.14 | 963.75 | 959.19 | – | – | – | –
[1], x2 = 0.895 | 981.31 | 976.67 | 972.25 | 967.63 | – | – | – | –
[1], x2 = 0.967 | 992.94 | 988.19 | 983.74 | 979.01 | – | – | – | –
[2], x2 = 0 | – | – | – | – | 1.5045 | 1.4993 | 1.4976 | 1.4948
[2], x2 = 0.1099 | – | – | – | – | 1.5063 | 1.5009 | 1.4991 | 1.4964
[2], x2 = 0.2441 | – | – | – | – | 1.5088 | 1.5029 | 1.5011 | 1.4984
[2], x2 = 0.3933 | – | – | – | – | 1.5116 | 1.5054 | 1.5033 | 1.5007
[2], x2 = 0.509 | – | – | – | – | 1.5142 | 1.5073 | 1.5052 | 1.5026
[2], x2 = 0.672 | – | – | – | – | 1.5175 | 1.5103 | 1.5079 | 1.5054
[2], x2 = 0.749 | – | – | – | – | 1.5193 | 1.5117 | 1.5093 | 1.5068
[2], x2 = 0.8397 | – | – | – | – | 1.5214 | 1.5136 | 1.511 | 1.5086
[2], x2 = 0.895 | – | – | – | – | 1.5228 | 1.5147 | 1.5121 | 1.5097
[2], x2 = 0.967 | – | – | – | – | 1.5247 | 1.5162 | 1.5135 | 1.5111

Cc1cccc(C)c1 [1,3-dimethylbenzene] + COc1ccccc1
x2 = 0
Settings | mass density, 288.15 K [kg/m3] | mass density, 293.15 K [kg/m3] | mass density, 298.15 K [kg/m3] | mass density, 303.15 K [kg/m3] | refractive index, 288.15 K | refractive index, 293.15 K | refractive index, 298.15 K | refractive index, 303.15 K
[1] | 868.32 | 864.05 | 859.77 | 855.47 | – | – | – | –
[2] | – | – | – | – | 1.4997 | 1.4973 | 1.4944 | 1.4925

Cc1ccc(C)cc1 [1,4-dimethylbenzene] + COc1ccccc1
x2 = 0
Settings | mass density, 288.15 K [kg/m3] | mass density, 293.15 K [kg/m3] | mass density, 298.15 K [kg/m3] | mass density, 303.15 K [kg/m3] | refractive index, 288.15 K | refractive index, 293.15 K | refractive index, 298.15 K | refractive index, 303.15 K
[1] | 865.25 | 860.92 | 856.62 | 852.25 | – | – | – | –
[2] | – | – | – | – | 1.4983 | 1.4958 | 1.4929 | 1.4915

COc1ccccc1 [anisole] + Cc1cc(C)cc(C)c1
x1 = 1
Settings | mass density, 288.15 K [kg/m3] | mass density, 293.15 K [kg/m3] | mass density, 298.15 K [kg/m3] | mass density, 303.15 K [kg/m3] | refractive index, 288.15 K | refractive index, 293.15 K | refractive index, 298.15 K | refractive index, 303.15 K
[1] | 998.44 | 993.65 | 989.15 | 984.37 | – | – | – | –
[2] | – | – | – | – | 1.5256 | 1.5169 | 1.5141 | 1.5117

COc1ccccc1 [anisole] + Cc1ccc(C)cc1
Settings | mass density, 288.15 K [kg/m3] | mass density, 293.15 K [kg/m3] | mass density, 298.15 K [kg/m3] | mass density, 303.15 K [kg/m3] | refractive index, 288.15 K | refractive index, 293.15 K | refractive index, 298.15 K | refractive index, 303.15 K
[1], x1 = 0.0994 | 877.53 | 873.32 | 869.02 | 864.71 | – | – | – | –
[1], x1 = 0.2471 | 896.11 | 891.85 | 887.55 | 883.2 | – | – | – | –
[1], x1 = 0.3745 | 912.51 | 908.14 | 903.84 | 899.38 | – | – | – | –
[1], x1 = 0.496 | 928.51 | 924.05 | 919.74 | 915.2 | – | – | – | –
[1], x1 = 0.6455 | 948.69 | 944.15 | 939.83 | 935.26 | – | – | – | –
[1], x1 = 0.7466 | 962.63 | 958.06 | 953.71 | 949.14 | – | – | – | –
[1], x1 = 0.8972 | 983.79 | 979.14 | 974.73 | 970.18 | – | – | – | –
[1], x1 = 0.949 | 991.13 | 986.45 | 981.99 | 977.4 | – | – | – | –
[1], x1 = 0.9772 | 995.17 | 990.43 | 985.95 | 981.34 | – | – | – | –
[1], x1 = 1 | 998.44 | 993.65 | 989.15 | 984.37 | – | – | – | –
[2], x1 = 0.0994 | – | – | – | – | 1.5007 | 1.4978 | 1.4949 | 1.4935
[2], x1 = 0.2471 | – | – | – | – | 1.5044 | 1.5006 | 1.4978 | 1.4963
[2], x1 = 0.3745 | – | – | – | – | 1.5077 | 1.5032 | 1.5004 | 1.4987
[2], x1 = 0.496 | – | – | – | – | 1.5109 | 1.5057 | 1.5029 | 1.5011
[2], x1 = 0.6455 | – | – | – | – | 1.5151 | 1.5089 | 1.5061 | 1.5042
[2], x1 = 0.7466 | – | – | – | – | 1.5179 | 1.5111 | 1.5084 | 1.5064
[2], x1 = 0.8972 | – | – | – | – | 1.5223 | 1.5145 | 1.5118 | 1.5097
[2], x1 = 0.949 | – | – | – | – | 1.5239 | 1.5157 | 1.5129 | 1.5107
[2], x1 = 0.9772 | – | – | – | – | 1.5248 | 1.5164 | 1.5136 | 1.5113
[2], x1 = 1 | – | – | – | – | 1.5256 | 1.5169 | 1.5141 | 1.5117

Source: the NIST ThermoML archive (doi:10.1016/j.jct.2006.02.001)
